HELM strings list units from the 5' end as sugar, base in round brackets, then linkage (d deoxyribose, r ribose, m 2'-O-methyl, p phosphodiester). Strings are as the collection lists them; they lack the last nucleoside at the 3' end of the tested compound. [moe] = 2'-O-(2-methoxyethyl) (MOE); [sp] = phosphorothioate linkage; [m5C] = 5-methylcytosine

This data set has as its target ATXN3. Put plainly: mouse, dose not given. The following applies: ASO.
Take “RNA1{[moe](G)[sp].[moe](G)p.[moe]([m5C])p.[moe](A)p.[moe]([m5C])p.d(A)[sp].d(T)[sp].d(T)[sp].d(T)[sp].d(T)[sp].d(T)[sp].d(T)[sp].d(A)[sp].d(T)[sp].d(A)[sp].[moe](G)p.[moe](A)p.[moe](G)[sp].[moe](T)}$$$$ (last 3' nucleoside missing)”: the 3 h FOB score came out at 1.25 score 0-7.
Under “RNA1{[moe](G)[sp].[moe](T)p.[moe](G)p.[moe](A)p.[moe]([m5C])[sp].d(T)[sp].d(A)[sp].d(A)[sp].d([m5C])[sp].d(A)[sp].d(G)[sp].d(T)[sp].d(A)[sp].d(T)[sp].d(G)[sp].[moe](T)p.[moe](T)p.[moe](T)[sp].[moe](T)}$$$$ (last 3' nucleoside missing)” stands 2.25 score 0-7; under “RNA1{[moe](G)[sp].[moe](T)p.[moe](G)p.[moe]([m5C])p.[moe](T)[sp].d(A)[sp].d(T)[sp].d(A)[sp].d(A)[sp].d(T)[sp].d(T)[sp].d([m5C])[sp].d(T)[sp].d(T)[sp].d(G)[sp].[moe]([m5C])p.[moe](T)p.[moe](T)[sp].[moe]([m5C])}$$$$ (last 3' nucleoside missing)”, 1.25 score 0-7.
Substance “RNA1{[moe](G)[sp].[moe](T)p.[moe](G)p.[moe]([m5C])p.[moe](T)[sp].d(T)[sp].d(T)[sp].d(T)[sp].d([m5C])[sp].d(A)[sp].d(T)[sp].d(A)[sp].d([m5C])[sp].d([m5C])[sp].d(A)[sp].[moe](G)p.[moe](G)p.[moe](T)[sp].[moe]([m5C])}$$$$ (last 3' nucleoside missing)” gave a 3 h FOB score of 1 score 0-7.
“RNA1{[moe](G)[sp].[moe](T)p.[moe](G)p.[moe]([m5C])p.[moe](T)p.d(T)[sp].d(T)[sp].d(T)[sp].d([m5C])[sp].d(A)[sp].d(T)[sp].d(A)[sp].d([m5C])[sp].d([m5C])[sp].d(A)[sp].[moe](G)p.[moe](G)p.[moe](T)[sp].[moe]([m5C])}$$$$ (last 3' nucleoside missing)” registered a 3 h FOB score of 1.5 score 0-7.
The substance “RNA1{[moe](G)[sp].[moe](T)p.[moe](T)[sp].[moe](A)[sp].[moe](A)[sp].d(T)[sp].d(A)[sp].d([m5C])[sp].d(T)[sp].d(T)[sp].d(T)[sp].d(T)[sp].d(T)[sp].d([m5C])[sp].d([m5C])[sp].[moe](A)[sp].[moe](G)p.[moe]([m5C])[sp].[moe]([m5C])}$$$$ (last 3' nucleoside missing)” showed a 3 h FOB score of 1 score 0-7.
Substance “RNA1{[moe](G)[sp].[moe](T)p.[moe](T)p.[moe](A)p.[moe](A)p.[moe](T)p.d(A)[sp].d([m5C])[sp].d(T)[sp].d(T)[sp].d(T)[sp].d(T)[sp].d(T)[sp].d([m5C])[sp].d([m5C])[sp].d(A)[sp].[moe](G)p.[moe]([m5C])[sp].[moe]([m5C])}$$$$ (last 3' nucleoside missing)” returned a 3 h FOB score of 1 score 0-7.
Under “RNA1{[moe](G)[sp].[moe](T)p.[moe](T)p.[moe](A)p.[moe](A)p.d(T)[sp].d(A)[sp].d([m5C])[sp].d(T)[sp].d(T)[sp].d(T)[sp].d(T)[sp].d(T)[sp].d([m5C])[sp].d([m5C])[sp].[moe](A)p.[moe](G)p.[moe]([m5C])[sp].[moe]([m5C])}$$$$ (last 3' nucleoside missing)” stands 1 score 0-7; under “RNA1{[moe](G)[sp].[moe](T)p.[moe](T)p.[moe]([m5C])p.[moe](A)p.[moe](T)p.d(A)[sp].d(T)[sp].d([m5C])[sp].d([m5C])[sp].d(T)[sp].d(T)[sp].d(T)[sp].d(A)[sp].d(A)[sp].d([m5C])[sp].[moe]([m5C])p.[moe]([m5C])[sp].[moe](A)}$$$$ (last 3' nucleoside missing)”, 0.25 score 0-7; under “RNA1{[moe](G)[sp].[moe](T)p.[moe](T)p.[moe]([m5C])p.[moe]([m5C])p.d(A)[sp].d(G)[sp].d(A)[sp].d(T)[sp].d([m5C])[sp].d(A)[sp].d([m5C])[sp].d([m5C])[sp].d(A)[sp].d(T)[sp].[moe]([m5C])p.[moe](T)p.[moe](T)[sp].[moe](T)}$$$$ (last 3' nucleoside missing)”, 3.5 score 0-7.
